Test results published in patent US20260184691A1, “INHIBITORS AND DEGRADERS OF PIP4K PROTEIN” (Larkspur Biosciences, Inc., priority 2022, published 2026).

biological target: T1, endogenous PIP4K2C C-terminally tagged with HiBiT peptide in MOLT-4 cells (Homo sapiens, UniProt Q8TBX8); assay: HiBiT PIP4K2C degradation assay in MOLT-4 cells; type: cell-based; conditions: 24 hours, 10-point dose response, top concentration 10 micromolar, read-out: HiBIT-degradation MOLT4 PIP4k2C 24 hours DC50
T1 construct: to C-terminally tag endogenous PIP4K2C with HiBiT peptide; host or cells: MOLT-4 (CRISPR-Cas9 knock-in clone)
T1 sequence (Q8TBX8 1-421): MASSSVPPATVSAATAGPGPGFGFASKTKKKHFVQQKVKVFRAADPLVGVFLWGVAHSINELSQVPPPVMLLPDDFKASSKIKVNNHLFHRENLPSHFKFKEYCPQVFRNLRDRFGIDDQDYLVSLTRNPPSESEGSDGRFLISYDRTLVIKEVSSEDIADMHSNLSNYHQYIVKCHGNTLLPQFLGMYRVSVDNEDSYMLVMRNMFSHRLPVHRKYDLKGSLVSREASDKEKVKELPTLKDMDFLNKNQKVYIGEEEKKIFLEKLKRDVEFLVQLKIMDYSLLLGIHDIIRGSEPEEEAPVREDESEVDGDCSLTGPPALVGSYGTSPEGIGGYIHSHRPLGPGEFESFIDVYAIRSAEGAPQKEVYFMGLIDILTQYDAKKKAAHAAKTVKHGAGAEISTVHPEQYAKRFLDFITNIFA
How it was run: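 Cells bearing C-terminal HiBiT knock-in were exposed to a 10-point, 3-fold dilution series (top 10 micromolar, duplicate) for 24 h at 37C, 5% CO2. Remaining tagged protein read by lytic HiBiT luminescence; DC50 from Hill-equation fit.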

DC50 [µM] | Structure (SMILES)
< 0.5 | O=C1CCC(Nc2ccc(C3CCN(CC(=O)N4CCC5(CC4)CCN(c4cncc(Nc6ncc(Cl)c(-c7cccc(N8CCC8)c7)n6)c4)C5=O)CC3)cc2)C(=O)N1 (stereo not drawn) [Compound 188, 3-((4-(1-(2-(2-(5-((4-(3-(azetidin-1-yl)phenyl)-5-chloropyrimidin-2-yl)amino)pyridin-3-yl)-1-oxo-2,8-diazaspiro[4.5]decan-8-yl)-2-oxoethyl)piperidin-4-yl)phenyl)amino)piperidine-2,6-dione]
0.5 to 1 | O=C1CCC(Nc2ccc(N3CCC(CC(=O)N4CCC5(CC4)CCN(c4cncc(Nc6ncc(Cl)c(-c7cccc(C8CCCCC8)c7)n6)c4)C5=O)CC3)cc2)C(=O)N1 (stereo not drawn) [Compound 189, 3-((4-(4-(2-(2-(5-((5-chloro-4-(3-cyclohexylphenyl)pyrimidin-2-yl)amino)pyridin-3-yl)-1-oxo-2,8-diazaspiro[4.5]decan-8-yl)-2-oxoethyl)piperidin-1-yl)phenyl)amino)piperidine-2,6-dione]
< 0.5 | O=C1CCC(Nc2ccc(C3CCN(CC(=O)N4CCC5(CC4)CCN(c4cncc(Nc6ncc(Cl)c(-c7cccc(C8CCCCC8)c7)n6)c4)C5=O)CC3)cc2)C(=O)N1 (stereo not drawn) [Compound 190, 3-((4-(1-(2-(2-(5-((5-chloro-4-(3-cyclohexylphenyl)pyrimidin-2-yl)amino)pyridin-3-yl)-1-oxo-2,8-diazaspiro[4.5]decan-8-yl)-2-oxoethyl)piperidin-4-yl)phenyl)amino)piperidine-2,6-dione]
< 0.5 | O=C1CCC(Nc2ccc(N3CCC(CC(=O)N4CCC5(CC4)CCN(c4cncc(Nc6ncc(Cl)c(-c7cccc(C8CCCC8)c7)n6)c4)C5=O)CC3)cc2)C(=O)N1 (stereo not drawn) [Compound 191, 3-((4-(4-(2-(2-(5-((5-chloro-4-(3-cyclopentylphenyl)pyrimidin-2-yl)amino)pyridin-3-yl)-1-oxo-2,8-diazaspiro[4.5]decan-8-yl)-2-oxoethyl)piperidin-1-yl)phenyl)amino)piperidine-2,6-dione]
< 0.5 | O=C1CCC(Nc2ccc(C3CCN(CC(=O)N4CCC5(CC4)CCN(c4cncc(Nc6ncc(Cl)c(-c7cccc(C8CCCC8)c7)n6)c4)C5=O)CC3)cc2)C(=O)N1 (stereo not drawn) [Compound 192, 3-((4-(1-(2-(2-(5-((5-chloro-4-(3-cyclopentylphenyl)pyrimidin-2-yl)amino)pyridin-3-yl)-1-oxo-2,8-diazaspiro[4.5]decan-8-yl)-2-oxoethyl)piperidin-4-yl)phenyl)amino)piperidine-2,6-dione]
< 0.5 | O=C1CCC(Nc2ccc(C3CCN(C(=O)CN4CCC5(CC4)CCN(c4cncc(Nc6ncc(Cl)c(-c7cccc(C8CC8)c7)n6)c4)C5=O)CC3)cc2)C(=O)N1 (stereo not drawn) [Compound 200, 3-((4-(1-(2-(2-(5-((5-chloro-4-(3-cyclopropylphenyl)pyrimidin-2-yl)amino)pyridin-3-yl)-1-oxo-2,8-diazaspiro[4.5]decan-8-yl)acetyl)piperidin-4-yl)phenyl)amino)piperidine-2,6-dione]

The next lines start with the compound.

Structure (SMILES) | DC50 [µM]
CN1CCC(n2cc(-c3nc(Nc4cncc(N5CCC6(CCN(C(=O)CC7CCN(c8ccc(NC9CCC(=O)NC9=O)cc8)CC7)CC6)C5=O)c4)ncc3Cl)cn2)CC1 (stereo not drawn) [Compound 193, 3-((4-(4-(2-(2-(5-((5-chloro-4-(1-(1-methylpiperidin-4-yl)-1H-pyrazol-4-yl)pyrimidin-2-yl)amino)pyridin-3-yl)-1-oxo-2,8-diazaspiro[4.5]decan-8-yl)-2-oxoethyl)piperidin-1-yl)phenyl)amino)piperidine-2,6-dione] | < 0.5
CN1CCC(n2cc(-c3nc(Nc4cncc(N5CCC6(CCN(C(=O)CN7CCC(c8ccc(NC9CCC(=O)NC9=O)cc8)CC7)CC6)C5=O)c4)ncc3Cl)cn2)CC1 (stereo not drawn) [Compound 194, 3-((4-(1-(2-(2-(5-((5-chloro-4-(1-(1-methylpiperidin-4-yl)-1H-pyrazol-4-yl)pyrimidin-2-yl)amino)pyridin-3-yl)-1-oxo-2,8-diazaspiro[4.5]decan-8-yl)-2-oxoethyl)piperidin-4-yl)phenyl)amino)piperidine-2,6-dione] | < 0.5
O=C1CCC(N2Cc3cc(NCCCCC(=O)N4CCC5(CC4)CCN(c4cncc(Nc6ncc(Cl)c(-c7cccc(-c8ccccn8)c7)n6)c4)C5=O)ccc3C2=O)C(=O)N1 (stereo not drawn) [Compound 195, 3-(5-((5-(2-(5-((5-chloro-4-(3-(pyridin-2-yl)phenyl)pyrimidin-2-yl)amino)pyridin-3-yl)-1-oxo-2,8-diazaspiro[4.5]decan-8-yl)-5-oxopentyl)amino)-1-oxoisoindolin-2-yl)piperidine-2,6-dione] | < 0.5
O=C1CCC(N2Cc3cc(C4CCN(C(=O)CN5CCC(C(=O)Nc6cncc(Nc7ncc(Cl)c(-c8cccc(C9CC9)c8)n7)c6)CC5)CC4)ccc3C2=O)C(=O)N1 (stereo not drawn) [Compound 196, N-(5-((5-chloro-4-(3-cyclopropylphenyl)pyrimidin-2-yl)amino)pyridin-3-yl)-1-(2-(4-(2-(2,6-dioxopiperidin-3-yl)-1-oxoisoindolin-5-yl)piperidin-1-yl)-2-oxoethyl)piperidine-4-carboxamide] | < 0.5
CC(=O)N1CCCC(n2cc(-c3nc(Nc4cncc(N5CCC6(CCN(C(=O)CN7CCC(c8ccc(NC9CCC(=O)NC9=O)cc8)CC7)CC6)C5=O)c4)ncc3Cl)cn2)C1 (stereo not drawn) [Compound 197, 3-((4-(1-(2-(2-(5-((4-(1-(1-acetylpiperidin-3-yl)-1H-pyrazol-4-yl)-5-chloropyrimidin-2-yl)amino)pyridin-3-yl)-1-oxo-2,8-diazaspiro[4.5]decan-8-yl)-2-oxoethyl)piperidin-4-yl)phenyl)amino)piperidine-2,6-dione] | < 0.5
O=C1CCC(N2Cc3cc(C4CCN(C(=O)CN5CCC6(CC5)CCN(c5cncc(Nc7ncc(Cl)c(-c8cccc(C9CC9)c8)n7)c5)C6=O)CC4)ccc3C2=O)C(=O)N1 (stereo not drawn) [Compound 198, 3-(5-(1-(2-(2-(5-((5-chloro-4-(3-cyclopropylphenyl)pyrimidin-2-yl)amino)pyridin-3-yl)-1-oxo-2,8-diazaspiro[4.5]decan-8-yl)acetyl)piperidin-4-yl)-1-oxoisoindolin-2-yl)piperidine-2,6-dione] | < 0.5
O=C1CCC(N2Cc3cc(OC4CCN(C(=O)CN5CCC6(CC5)CCN(c5cncc(Nc7ncc(Cl)c(-c8cccc(C9CC9)c8)n7)c5)C6=O)CC4)ccc3C2=O)C(=O)N1 (stereo not drawn) [Compound 199, 3-(5-((1-(2-(2-(5-((5-chloro-4-(3-cyclopropylphenyl)pyrimidin-2-yl)amino)pyridin-3-yl)-1-oxo-2,8-diazaspiro[4.5]decan-8-yl)acetyl)piperidin-4-yl)oxy)-1-oxoisoindolin-2-yl)piperidine-2,6-dione] | < 0.5
O=C1CCC(N2Cc3cc(OC4CCN(C(=O)CN5CCC(C(=O)Nc6cncc(Nc7ncc(Cl)c(-c8cccc(C9CC9)c8)n7)c6)CC5)CC4)ccc3C2=O)C(=O)N1 (stereo not drawn) [Compound 201, N-(5-((5-chloro-4-(3-cyclopropylphenyl)pyrimidin-2-yl)amino)pyridin-3-yl)-1-(2-(4-((2-(2,6-dioxopiperidin-3-yl)-1-oxoisoindolin-5-yl)oxy)piperidin-1-yl)-2-oxoethyl)piperidine-4-carboxamide] | < 0.5
O=C1CCC(Nc2ccc(C3CCN(C(=O)CN4CCC(C(=O)Nc5cncc(Nc6ncc(Cl)c(-c7cccc(C8CC8)c7)n6)c5)CC4)CC3)cc2)C(=O)N1 (stereo not drawn) [Compound 202, N-(5-((5-chloro-4-(3-cyclopropylphenyl)pyrimidin-2-yl)amino)pyridin-3-yl)-1-(2-(4-(4-((2,6-dioxopiperidin-3-yl)amino)phenyl)piperidin-1-yl)-2-oxoethyl)piperidine-4-carboxamide] | < 0.5
O=C1CCC(N2Cc3cc(C4CCN(CC(=O)N5CCC(C(=O)Nc6cncc(Nc7ncc(Cl)c(-c8cccc(C9CC9)c8)n7)c6)CC5)CC4)ccc3C2=O)C(=O)N1 (stereo not drawn) [Compound 203, N-(5-((5-chloro-4-(3-cyclopropylphenyl)pyrimidin-2-yl)amino)pyridin-3-yl)-1-(2-(4-(2-(2,6-dioxopiperidin-3-yl)-1-oxoisoindolin-5-yl)piperidin-1-yl)acetyl)piperidine-4-carboxamide] | < 0.5
Cn1c(=O)n(C2CCC(=O)NC2=O)c2ccc(C3CCN(C(=O)CN4CCC(C(=O)Nc5cncc(Nc6ncc(Cl)c(-c7cccc(C8CC8)c7)n6)c5)CC4)CC3)cc21 (stereo not drawn) [Compound 204, N-(5-((5-chloro-4-(3-cyclopropylphenyl)pyrimidin-2-yl)amino)pyridin-3-yl)-1-(2-(4-(1-(2,6-dioxopiperidin-3-yl)-3-methyl-2-oxo-2,3-dihydro-1H-benzo[d]imidazol-5-yl)piperidin-1-yl)-2-oxoethyl)piperidine-4-carboxamide] | < 0.5
O=C1CCC(N2Cc3cc(OC4CCN(CC(=O)N5CCC6(CC5)CCN(c5cncc(Nc7ncc(Cl)c(-c8cccc(C9CC9)c8)n7)c5)C6=O)CC4)ccc3C2=O)C(=O)N1 (stereo not drawn) [Compound 205, 3-[5-[[1-[2-[2-[5-[[5-chloro-4-(3-cyclopropylphenyl)pyrimidin-2-yl]amino]-3-pyridyl]-1-oxo-2,8-diazaspiro[4.5]decan-8-yl]-2-oxo-ethyl]-4-piperidyl]oxy]-1-oxo-isoindolin-2-yl]piperidine-2,6-dione] | < 0.5
